Test results: patent US20210346419A1, “COMPOSITIONS AND METHODS FOR DIAGNOSIS AND TREATMENT OF CONDITIONS RELATED TO THE QUALITY OF AGING AND LONGEVITY” (EPITRACKER, INC., priority 2019, published 2021)

What was measured:
[1] = tested on: 4H human cell system; assay: BioMAP Diversity PLUS primary human cell phenotypic profiling, 4H system; type: cell-based; conditions: 6.7 and/or 20 μM, 24 to 72 hours
Description: (§1) It was hypothesized that, given the compounds' associations with lower risks of comorbidities of aging in long-lived dolphins, the compounds of the embodiments would have relevant activities in human cell systems mimicking conditions related to the quality of aging and longevity. To test this hypothesis, 12 primary human cell systems from the BioMAP Diversity PLUS® panel (Eurofins/DiscoverX, Fremont, Calif.) mimicking inflammation and fibrosis relevant to chronic inflammation, liver disease, respiratory disease, skin disease, wound healing, scarring, allergies, asthma, autoimmune disease, cancer, and cardiovascular disease, were exposed to pure, synthetic forms of the selected compounds at one or two concentrations (6.7 and/or 20 μM). Quantitative measurements of 148 biomarker activities across this broad panel, along with comparative analysis of biological activities from known bioactive agents, were used to predict and compare the efficacy and function of the targeted compounds across these systems compared to non-treated control systems. Activated BioMAP systems were incubated with the targeted compounds for 24 to 72 hours. Biomarker activities were considered significant when biomarker values were outside of the 95th percentile significance envelope and had at least one concentration with an effect size >20% (log 10 ratio) >0.1. FIG. 2 describes the different cell systems.
(§2) The summary is of relevant diseases and tissues treated with selected compounds at 6.7 to 20 μM, based on primary human cell phenotypic profiling.

[2] = tested on: MyoF human cell system; assay: BioMAP Diversity PLUS primary human cell phenotypic profiling, MyoF system; type: cell-based; conditions: 6.7 and/or 20 μM, 24 to 72 hours
Description: as §1, §2

[3] = tested on: SAg human cell system; assay: BioMAP Diversity PLUS primary human cell phenotypic profiling, SAg system; type: cell-based; conditions: 6.7 and/or 20 μM, 24 to 72 hours; for Proliferation, Log10 ratio of treated vs. non-treated systems: T cell proliferation
Description: as §1, §2

[4] = tested on: BT human cell system; assay: BioMAP Diversity PLUS primary human cell phenotypic profiling, BT system; type: cell-based; conditions: 6.7 and/or 20 μM, 24 to 72 hours
Description: as §1, §2

[5] = tested on: HDF3CGF human cell system; assay: BioMAP Diversity PLUS primary human cell phenotypic profiling, HDF3CGF system; type: cell-based; conditions: 6.7 and/or 20 μM, 24 to 72 hours
Description: as §1, §2

[6] = tested on: 3C human cell system; assay: BioMAP Diversity PLUS primary human cell phenotypic profiling, 3C system; type: cell-based; conditions: 6.7 and/or 20 μM, 24 to 72 hours
Description: as §1, with “cell systems. […]” for “cell systems.”

[7] = tested on: BE3C human cell system; assay: BioMAP Diversity PLUS primary human cell phenotypic profiling, BE3C system; type: cell-based; conditions: 6.7 and/or 20 μM, 24 to 72 hours
Description: as §1, §2

[8] = tested on: KF3CT human cell system; assay: BioMAP Diversity PLUS primary human cell phenotypic profiling, KF3CT system; type: cell-based; conditions: 6.7 and/or 20 μM, 24 to 72 hours
Description: as §1, §2

[9] = tested on: /Mphg human cell system; assay: BioMAP Diversity PLUS primary human cell phenotypic profiling, /Mphg system; type: cell-based; conditions: 6.7 and/or 20 μM, 24 to 72 hours
Description: as §1, §2

[10] = tested on: LPS human cell system; assay: BioMAP Diversity PLUS primary human cell phenotypic profiling, LPS system; type: cell-based; conditions: 6.7 and/or 20 μM, 24 to 72 hours
Description: as §1, §2

[11] = tested on: CASM3C human cell system; assay: BioMAP Diversity PLUS primary human cell phenotypic profiling, CASM3C system; type: cell-based; conditions: coronary artery smooth muscle cell proliferation, 6.7 and/or 20 μM, 24 to 72 hours
Description: as §1, with “cell systems. […]” for “cell systems.”

[12] = tested on: BF4T human cell system; assay: BioMAP Diversity PLUS primary human cell phenotypic profiling, BF4T system; type: cell-based; conditions: 6.7 and/or 20 μM, 24 to 72 hours
Description: as §1, with “cell systems. […]” for “cell systems.”

[13] = room temperature; cited from earlier work

SMILES: N=C(N)NCCCC(=O)O [4-guanidinobutanoate]
- MCP-1, Log10 ratio of treated vs. non-treated systems [1]: −0.12
- Collagen IV, Log10 ratio of treated vs. non-treated systems [2]: 0.13
- CD38, Log10 ratio of treated vs. non-treated systems [3]: −0.10
- Proliferation, Log10 ratio of treated vs. non-treated systems [3]: −0.13
- IL-17A (sIL-17A), Log10 ratio of treated vs. non-treated systems [4]: −0.17
- TNF-α (sTNF-α), Log10 ratio of treated vs. non-treated systems [4]: −0.10
- sIgG, Log10 ratio of treated vs. non-treated systems [4]: −0.49
- CXCL10, Log10 ratio of treated vs. non-treated systems [5]: −0.11
- CXCL11, Log10 ratio of treated vs. non-treated systems [5]: −0.19
- Collagen III, Log10 ratio of treated vs. non-treated systems [5]: −0.23
- Proliferation, Log10 ratio of treated vs. non-treated systems [5]: −1.09
- TIMP-1, Log10 ratio of treated vs. non-treated systems [5]: −0.14
- VCAM-1 (VCAM1), Log10 ratio of treated vs. non-treated systems [5]: −0.19

SMILES: CC(=O)N[C@H](C(=O)O)[C@@H](C)O [N-acetylthreonine]
- VEGFR2, Log10 ratio of treated vs. non-treated systems [1]: −0.16
- sIgG, Log10 ratio of treated vs. non-treated systems [4]: −0.41

SMILES: Nc1ncnc2c1ncn2[C@@H]1O[C@H](CSCC[C@H](N)C(=O)O)[C@@H](O)[C@H]1O [S-adenosylhomocysteine (SAH), S-adenosylhomocysteine]
- Proliferation, Log10 ratio of treated vs. non-treated systems ([6]; endothelial cell proliferation): −0.27
- CXCL8, Log10 ratio of treated vs. non-treated systems [7]: −0.13
- CXCL11, Log10 ratio of treated vs. non-treated systems [7]: −0.13
- HLA-DR, Log10 ratio of treated vs. non-treated systems [7]: −0.13
- MMP-9, Log10 ratio of treated vs. non-treated systems [7]: −0.24
- Alpha-SM actin, Log10 ratio of treated vs. non-treated systems [2]: −0.18
- Collagen I, Log10 ratio of treated vs. non-treated systems [2]: −0.15
- Collagen III, Log10 ratio of treated vs. non-treated systems [2]: −0.27
- Collagen IV, Log10 ratio of treated vs. non-treated systems [2]: 0.31
- VCAM-1, Log10 ratio of treated vs. non-treated systems [2]: −0.12
- MMP-9, Log10 ratio of treated vs. non-treated systems [8]: −0.10
- PAI-1, Log10 ratio of treated vs. non-treated systems [8]: −0.28
- Proliferation, Log10 ratio of treated vs. non-treated systems [3]: −0.21
- sIgG, Log10 ratio of treated vs. non-treated systems [4]: −0.29
- CXCL10, Log10 ratio of treated vs. non-treated systems [5]: −0.19
- CXCL11, Log10 ratio of treated vs. non-treated systems [5]: −0.25
- Collagen III, Log10 ratio of treated vs. non-treated systems [5]: −0.21
- M-CSF, Log10 ratio of treated vs. non-treated systems [5]: −0.19
- MCP-1, Log10 ratio of treated vs. non-treated systems [5]: −0.14
- PAI-1, Log10 ratio of treated vs. non-treated systems [5]: −0.23
- Proliferation, Log10 ratio of treated vs. non-treated systems [5]: −1.10
- TIMP-1, Log10 ratio of treated vs. non-treated systems [5]: −0.14
- VCAM-1 (VCAM1), Log10 ratio of treated vs. non-treated systems [5]: −0.17

SMILES: C[C@H](CCC(=O)O)[C@H]1CC[C@H]2[C@@H]3[C@H](O)C[C@@H]4C[C@H](O)CC[C@]4(C)[C@H]3CC[C@]12C [chenodeoxycholate]
- CXCL8, Log10 ratio of treated vs. non-treated systems [3]: −0.10

SMILES: C[C@H](CCC(=O)O)[C@H]1CC[C@H]2[C@@H]3[C@H](O)C[C@@H]4C[C@H](O)CC[C@]4(C)[C@H]3C[C@H](O)[C@]12C [cholate]
- MMP-1, Log10 ratio of treated vs. non-treated systems [7]: −0.10

SMILES: N[C@@H](CCC(=O)N[C@@H](Cc1c[nH]cn1)C(=O)O)C(=O)O [gamma-glutamylhistidine]
- CXCL8, Log10 ratio of treated vs. non-treated systems [9]: −0.15
- Tissue factor, Log10 ratio of treated vs. non-treated systems [6]: −0.12
- MMP-1, Log10 ratio of treated vs. non-treated systems [7]: −0.10
- TNF-α (sTNF-α), Log10 ratio of treated vs. non-treated systems [4]: −0.18
- CD40, Log10 ratio of treated vs. non-treated systems [10]: −0.11
- E-selectin, Log10 ratio of treated vs. non-treated systems [10]: −0.11
- Proliferation, Log10 ratio of treated vs. non-treated systems [11]: 0.11

SMILES: O=C(O)CNC(=O)c1ccccc1 [hippurate]
- CXCL8, Log10 ratio of treated vs. non-treated systems [9]: −0.12
- P-selectin, Log10 ratio of treated vs. non-treated systems [1]: −0.10
- MMP-1, Log10 ratio of treated vs. non-treated systems [7]: −0.11
- CD40, Log10 ratio of treated vs. non-treated systems [10]: −0.11
- Proliferation, Log10 ratio of treated vs. non-treated systems [11]: −0.10

SMILES: O[C@H]1[C@H](O)[C@@H](O)[C@H](O)[C@@H](O)[C@H]1O [myo-inositol]
- IL-1α, Log10 ratio of treated vs. non-treated systems [9]: −0.10
- Eotaxin-3, Log10 ratio of treated vs. non-treated systems [12]: −0.19
- MCP-1, Log10 ratio of treated vs. non-treated systems [12]: −0.21
- MCP-1, Log10 ratio of treated vs. non-treated systems [1]: −0.13
- CXCL8, Log10 ratio of treated vs. non-treated systems [7]: −0.26
- CXCL10, Log10 ratio of treated vs. non-treated systems [7]: −0.58
- CXCL11, Log10 ratio of treated vs. non-treated systems [7]: −0.28
- EGFR, Log10 ratio of treated vs. non-treated systems [7]: −0.11
- HLA-DR, Log10 ratio of treated vs. non-treated systems [7]: −0.10
- ICAM-1, Log10 ratio of treated vs. non-treated systems [7]: −0.11
- MMP-9, Log10 ratio of treated vs. non-treated systems [7]: −0.25
- PAI-1, Log10 ratio of treated vs. non-treated systems [7]: −0.18
- Collagen III, Log10 ratio of treated vs. non-treated systems [2]: −0.11
- Collagen IV, Log10 ratio of treated vs. non-treated systems [2]: 0.24
- VCAM-1, Log10 ratio of treated vs. non-treated systems [2]: −0.11
- CXCL10, Log10 ratio of treated vs. non-treated systems [8]: −0.26
- IL-1α, Log10 ratio of treated vs. non-treated systems [8]: −0.11
- MMP-9, Log10 ratio of treated vs. non-treated systems [8]: −0.18
- PAI-1, Log10 ratio of treated vs. non-treated systems [8]: −0.27
- Proliferation, Log10 ratio of treated vs. non-treated systems [3]: −0.20
- IL-17A (sIL-17A), Log10 ratio of treated vs. non-treated systems [4]: −0.12
- TNF-α (sTNF-α), Log10 ratio of treated vs. non-treated systems [4]: −0.21
- sIL-2, Log10 ratio of treated vs. non-treated systems [4]: −0.16
- sIL-17F, Log10 ratio of treated vs. non-treated systems [4]: −0.15
- sIgG, Log10 ratio of treated vs. non-treated systems [4]: −0.62

SMILES: COc1cc(C(O)C(=O)O)ccc1O (stereo not shown) [vanillylmandelate (VMA), vanillylmandelate]
- CXCL8, Log10 ratio of treated vs. non-treated systems [9]: −0.18

SMILES: O=c1[nH]c(=O)c2ncn([C@@H]3O[C@H](CO)[C@@H](O)[C@H]3O)c2[nH]1 [xanthosine]
- CXCL8, Log10 ratio of treated vs. non-treated systems [9]: −0.13
- Physical state and stability [13]: solid that is stable at room temperature
- CD40, Log10 ratio of treated vs. non-treated systems [10]: −0.12
- Tissue factor, Log10 ratio of treated vs. non-treated systems [10]: −0.13
